Test results: US20080269298A1, “Benzimidazol-1-YL-thiophene compounds for the treatment of cancer” (priority 2002, published 2008)

Experiments:
PLK1 kinase domain = molecular target: T1, PLK1 kinase domain (Homo sapiens, UniProt P53350); test: Assay for Inhibition of PLK1 (SPA enzyme activity); format: biochemical; details: 2 μM ATP, read-out: Ave pIC50 PLK Enzyme Inhibition (converted)
T1 construct: made in house; host or cells: baculovirus-infected T. ni insect cells
Method: All procedures were performed at 4° C. Cells were lysed in so mM HEPES, 200 mM NaCl, so mM imidazole, 5% glycerol; pH 7.5. The homogenate was centrifuged at 14K rpm in a SLA-1500 rotor for 1 hr and the supernatant filtered through a 1.2 micron filter. The supernatant was loaded onto a Nickel chelating Sepharose (Amersham Pharmacia) column and washed with lysis buffer. Protein was eluted using 20%, 30% and 100% buffer B steps where buffer B is 50 mM HEPES, 200 mM NaCl, 300 mM imidazole, 5% glycerol; pH 7.5. Fractions containing PLK were determined by SDS-PAGE. Fractions containing PLK were diluted five-fold with so mM HEPES, 1 mM DTT, 5% glycerol; pH 7.5, then loaded on an SP Sepharose (Amersham Pharmacia) column. After washing the column with so mM HEPES, 1 mM DTT, 5% glycerol; pH 7.5, PLK was step eluted with so mM HEPES, 1 mM DTT, 500 mM NaCl; 5% glycerol; pH 7.5. PLK was concentrated using a 10 kDa molecular weight cutoff membrane and then loaded onto a Superdex 200 gel filtration (Amersham Pharmacia) column equilibrated in 25 mM HEPES, 1 mM DTT, 500 mM NaCl, 5% glycerol; pH 7.5. Fractions containing PLK were determined by SDS-PAGE. PLK was pooled, aliquoted and stored at −80° C. Samples were quality controlled using mass spectrometry, N-terminal sequencing and amino acid analysis.
B. Enzyme activity+/−inhibitors was determined as follows:
Compounds were added to the plate (1 μl in […]). […] Reaction Mix B is prepared as follows at 4° C.: • Reaction Mix B (Enzyme Mix) • 25 mM HEPES, pH 7.2 • 15 mM MgCl2 • 0.15 mg/ml BSA • 2 mM DTT • 2-10 nM PLK1 kinase domain
Reaction Mix A (20 μl) is added per well. Reaction Mix B (20 μl) is added per well. Incubate 1.5 hrs. at RT. The enzymatic reaction is stopped with 175 μl of SPA/EDTA bead mix (29 mM EDTA, 2.5 mg/ml Streptavidin-coated SPA in Standard Dulbecco's PBS (without Mg^2+ and Ca^2+), 60 μM ATP). Plates are sealed spun (after a 1 hr incubation at RT) at 1,000×g for 7 min or settled overnight, then plates counted in Packard TopCount for 30 seconds/well.

[1] = test system: lung (H460) tumor cell line; test: Methylene Blue Growth Inhibition Assay, H460; format: cell-based; details: Homo sapiens, NCI-H460, 72 h; Cell Line H460, 3 days; read-out: MeB IC50
Method: (§1) Normal Human foreskin fibroblasts (HFF) and human colon (HCT116, RKO), lung (H460), prostate (PC3), and breast tumor (MCF7) cell lines were cultured in high glucose DMEM (Life Technologies) containing 10% fetal bovine serum (FBS) at 37° C. in a humidified 10% CO2, 90% air incubator. Cells were harvested using trypsin/EDTA, counted using a haemocytometer, and plated in 100 μl of the appropriate media, at the following densities, in a 96-well tissue culture plate (Falcon 3075): HFF 5,000 cells/well, HCT116 3,000 cells/well, RKO 2,500 cells/well, H460 2,000 cells/well, PC3 8,000 cells/well, MCF7 4,000 cells/well. The next day, compounds were diluted in DMEM containing 100 μg/ml gentamicin, at twice the final required concentration, from 10 mM stock solutions in DMSO. 100μ/well of these dilutions were added to the 100 μl of media currently on the cell plates. Medium containing 0.6% DMSO was added to control wells. Compounds diluted in DMEM were added to all cell lines. The final concentration of DMSO in all wells was 0.3%. Cells were incubated at 37° C., 10% CO2 for 3 days. Medium was removed by aspiration. Cell biomass was estimated by staining cells with […] per well methylene blue (Sigma M9140, 0.5% in 50:50 ethanol:water), and incubation at room temperature for at least 30 minutes. Stain was removed, and the plates rinsed under a gentle stream of water, and air-dried. To release stain from the cells 100 μl of solubilization solution was added (1% N-lauroyl sarcosine, Sodium salt, Sigma L5125, in PBS), and plates were shaken gently for about 30 minutes. Optical density at 620 nm was measured on a microplate reader. Percent inhibition of cell growth was calculated relative to vehicle treated control wells. Concentration of compound that inhibits 50% of cell growth (IC50) was interpolated using nonlinear regression (Levenberg-Marquardt) and the equation, y=Vmax*(1-(x/(K+x)))+Y2, where “K” was equal to the IC50. In Table 1, +=10−>30 uM; ++=1−10 uM: +++=<1 uM.

[2] = test system: colon (HCT116) tumor cell line; test: Methylene Blue Growth Inhibition Assay, HCT116; format: cell-based; details: Homo sapiens, HCT-116, 72 h; Cell Line HCT116, 3 days; read-out: MeB IC50
Method: as §1

[3] = test system: Normal Human foreskin fibroblasts (HFF); test: Methylene Blue Growth Inhibition Assay, HFF; format: cell-based; details: 72 h, Cell Line HFF, 3 days, read-out: MeB IC50
Method: as §1

[4] = test system: breast tumor (MCF7) cell line; test: Methylene Blue Growth Inhibition Assay, MCF7; format: cell-based; details: Homo sapiens, 72 h; Cell Line MCF7, 3 days; read-out: MeB IC50
Method: as §1

[5] = test system: prostate (PC3) tumor cell line; test: Methylene Blue Growth Inhibition Assay, PC3; format: cell-based; details: Homo sapiens, 72 h; Cell Line PC3, 3 days; read-out: MeB IC50
Method: as §1

[6] = test system: colon (RKO) tumor cell line; test: Methylene Blue Growth Inhibition Assay, RKO; format: cell-based; details: Homo sapiens, 72 h, 3 days, read-out: MeB IC50
Method: as §1

T1 sequence (P53350 21-346): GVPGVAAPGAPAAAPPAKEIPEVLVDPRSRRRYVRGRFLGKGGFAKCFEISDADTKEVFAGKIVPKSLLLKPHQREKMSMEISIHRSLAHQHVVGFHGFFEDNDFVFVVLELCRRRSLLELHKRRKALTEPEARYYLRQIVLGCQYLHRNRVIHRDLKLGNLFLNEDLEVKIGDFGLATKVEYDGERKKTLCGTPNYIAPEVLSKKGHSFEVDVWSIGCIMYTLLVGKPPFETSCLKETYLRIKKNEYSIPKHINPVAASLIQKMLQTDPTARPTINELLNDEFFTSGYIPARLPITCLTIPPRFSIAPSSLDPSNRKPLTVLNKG

| IC50 (PLK1 kinase domain) [µM] | IC50 [1] [µM] | IC50 [2] [µM] | IC50 [4] [µM] | IC50 [5] [µM] | IC50 [6] [µM] | Compound | IC50 [3] [µM] |
| --- | --- | --- | --- | --- | --- | --- | --- |
| < 0.1 | 1 to 10 | 1 to 10 | 1 to 10 | > 10 | 1 to 10 | COc1cc2ncn(-c3cc(OCc4ccc(C(N)=O)cc4)c(C(N)=O)s3)c2cc1OC [Example 104, 3-{[4-(Aminocarbonyl)benzyl]oxy}-5-(5,6-dimethoxy-1H-benzimidazol-1-yl)thiophene-2-carboxamide] | > 10 |
| < 0.1 | 1 to 10 | 1 to 10 | 1 to 10 | > 10 | 1 to 10 | COc1cc2ncn(-c3cc(OCc4ccccc4S(C)(=O)=O)c(C(N)=O)s3)c2cc1OC [Example 99, 5-(5,6-Dimethoxy-1H-benzimidazol-1-yl)-3-{[2-(methylsulfonyl)benzyl]oxy}thiophene-2-carboxamide] | > 10 |
| 0.1 to 10 | > 10 | > 10 | > 10 | > 10 | > 10 | COc1cc2ncn(-c3cc(OCCN4CCOCC4)c(C(N)=O)s3)c2cc1OC [Example 113, 5-(5,6-Dimethoxy-1H-benzimidazol-1-yl)-3-(2-morpholin-4-ylethoxy)thiophene-2-carboxamide] | > 10 |
| < 0.1 | > 10 | > 10 | > 10 | > 10 | > 10 | COc1cc2ncn(-c3cc(OCc4ccnc(N)c4)c(C(N)=O)s3)c2cc1OC [Example 100, 3-[(2-Aminopyridin-4-yl)methoxy]-5-(5,6-dimethoxy-1H-benzimidazol-1-yl)thiophene-2-carboxamide] | > 10 |
| < 0.1 | 1 to 10 | < 1 | 1 to 10 | 1 to 10 | < 1 | COc1cc2ncn(-c3cc(OCc4ccccc4C=O)c(C(N)=O)s3)c2cc1OC [Example 110, 5-(5,6-Dimethoxy-1H-benzimidazol-1-yl)-3-[(2-formylbenzyl)oxy]thiophene-2-carboxamide] | > 10 |
| < 0.1 | < 1 | < 1 | < 1 | 1 to 10 | < 1 | COc1cc2ncn(-c3cc(OCc4ccccc4C(F)(F)F)c(C(N)=O)s3)c2cc1OCCCN(C)C [Example 135, 5-[6-{[3-(Dimethylamino)propyl]oxy}-5-(methyloxy)-1H-benzimidazol-1-yl]-3-({[2-(trifluoromethyl)phenyl]methyl}oxy)-2-thiophenecarboxamide] | 1 to 10 |
| < 0.1 | 1 to 10 | 1 to 10 | 1 to 10 | > 10 | 1 to 10 | NC(=O)c1sc(-n2cnc3ccc(OCC(F)(F)F)cc32)cc1OCc1ccccc1C(F)(F)F [Example 87, 5-[6-(2,2,2-Trifluoroethoxy)-1H-benzimidazol-1-yl]-3-{[2-(trifluoromethyl)benzyl]oxy}thiophene-2-carboxamide] | > 10 |
| < 0.1 | > 10 | > 10 | > 10 | > 10 | > 10 | NC(=O)c1sc(-n2cnc3ccccc32)cc1NS(=O)(=O)c1ccccc1 [Example 132, 5-(1H-Benzimidazol-1-yl)-3-[(phenylsulfonyl)amino]thiophene-2-carboxamide] | > 10 |
| < 0.1 | 1 to 10 | 1 to 10 | 1 to 10 | 1 to 10 | 1 to 10 | COc1cc2ncn(-c3cc(OCc4ccccc4SC)c(C(N)=O)s3)c2cc1OC [Example 97] | 1 to 10 |

Further lines, the compound ahead of its results:

| Compound | IC50 (PLK1 kinase domain) [µM] | IC50 [1] [µM] | IC50 [2] [µM] | IC50 [4] [µM] | IC50 [5] [µM] | IC50 [6] [µM] | IC50 [3] [µM] |
| --- | --- | --- | --- | --- | --- | --- | --- |
| COc1cc2ncn(-c3cc(OCc4c(Cl)cccc4Cl)c(C(N)=O)s3)c2cc1OC [Example 64, 3-[(2,6-Dichlorobenzyl)oxy]-5-(5,6-dimethoxy-1H-benzimidazol-1-yl)thiophene-2-carboxamide] | < 0.1 | < 1 | 1 to 10 | 1 to 10 | > 10 | 1 to 10 | > 10 |
| Cc1ccccc1COc1cc(-n2cnc3ccc(Cl)cc32)sc1C(N)=O [Example 61] | < 0.1 | 1 to 10 | 1 to 10 | 1 to 10 | > 10 | 1 to 10 | > 10 |
| Cc1ccccc1COc1cc(-n2cnc3ccc(Cl)cc32)sc1C(=O)O [Example 35, 5-(6-Chloro-1H-benzimidazol-1-yl)-3-[(2-methylbenzyl)oxy]thiophene-2-carboxylic acid] | < 0.1 | > 10 | > 10 | > 10 | > 10 | > 10 | > 10 |
| O=C(O)c1sc(-n2cnc3cc(Cl)c(Cl)cc32)cc1OCc1ccco1 [Example 78, 5-(5,6-Dichloro-1H-benzimidazol-1-yl)-3-(2-furylmethoxy)thiophene-2-carboxylic acid] | < 0.1 | > 10 | > 10 | > 10 | > 10 | > 10 | > 10 |
| COc1cc2ncn(-c3cc(OCc4ccccc4Br)c(C(=O)O)s3)c2cc1OC [Example 76, 3-[(2-Bromobenzyl)oxy]-5-(5,6-dimethoxy-1H-benzimidazol-1-yl)thiophene-2-carboxylic acid] | < 0.1 | > 10 | > 10 | > 10 | > 10 | > 10 | > 10 |
| O=C(O)c1sc(-n2cnc3ccc(Br)cc32)cc1OCc1ccccc1C(F)(F)F [Example 74, 5-(6-Bromo-1H-benzimidazol-1-yl)-3-{[2-(trifluoromethyl)-benzyl]oxy}thiophene-2-carboxylic acid] | < 0.1 | 1 to 10 | > 10 | > 10 | > 10 | > 10 | > 10 |
| CC(=O)c1sc(-n2cnc3ccc(Cl)cc32)cc1OCc1ccccc1C [Example 39, 1-{5-(6-Chloro-1H-benzimidazol-1-yl)-3-[(2-methylbenzyl)oxy]thien-2-yl}ethanone] | 0.1 to 10 | > 10 | > 10 | > 10 | > 10 | > 10 | > 10 |
